These results are taken from PubChem BioAssay (NCI).

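Following 48 hours of exposure in 96-well plates, responses at five concentrations were used to interpolate endpoints linearly. GI50 = concentration required for 50% inhibition of growth. Definition used: TGI = concentration required for complete inhibition of growth.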

Common to all, as to test: inhibition of tumour cell growth, NCI panel, 48 h
The test system of assay [1] is HCT-15 colon.
Assay [2] relates to HOP-62 NSCLC.
Assay [3] relates to K-562 leukemia.
Assay [4] relates to MDA-MB-231 breast.
The subject of assay [5] is OVCAR-3 ovarian.
The subject of assay [6] is OVCAR-5 ovarian.
Assay [7] deals with RXF 393 renal.
Assay [8] has as its system SK-MEL-5 melanoma.
Assay [9] concerns U251 CNS.
In assay [10] the test system is UACC-257 melanoma.

As to `C/C1=C\C/C=C(\C)[C@H]2CC(CC/C(C)=C/CC1)[C@](C)(C=O)O2`, the GI50 is above 100 µM in assay [1]; 40.6 µM in assay [2]; 54.8 µM in assay [3]; above 100 µM in assay [4]; 76.4 µM in [5]; above 100 µM in assay [6]. Moreover, the GI50 in [7] is above 100 µM; in assay [8] it was 77.1 µM; in assay [9] it was 43.9 µM; in assay [10], above 100 µM. Further, the TGI in assay [1], in assay [2], in assay [3], in assay [4], in [5] and in [6] was above 100 µM throughout. The TGI in [7], in assay [8], in [9] and in [10] was above 100 µM in each case.
On to `NCCP(=O)(O)O`, for which the TGI in [1], in [2], in [3], in assay [4], in assay [5] and in assay [6] was above 100 µM each time. Further, the TGI in assay [7], in assay [8], in assay [9] and in assay [10] was above 100 µM in each case.
In the case of `NC(Cc1ccnnc1)C(=O)O` (stereo not given), the TGI in assay [1], in assay [2], in assay [3], in assay [4], in assay [5] and in assay [6] was above 100 µM throughout. The TGI in assay [7], in assay [8], in assay [9] and in assay [10] was above 100 µM each time.
For the molecule `CCc1c(O)c2c(c(O)c1C(C)=O)C(=O)c1c(cc(O)c(C(=O)O)c1C(=O)O)C2=O`, the TGI in [1], in assay [2], in [3], in assay [4], in [5] and in [6] was above 100 µM in each case. The TGI in [7], in assay [8], in assay [9] and in [10] was above 100 µM in each case.
As for `Cc1cccc2c1O/C(=C\c1ccc([N+](=O)[O-])o1)C2=O`, the GI50 was 0.274 µM in assay [1]; 1.64 µM in [2]; 0.296 µM in assay [3]; 1.21 µM in assay [4]; 0.689 µM in assay [5]; 1.79 µM in assay [6]. For the same molecule, the GI50 is 1.24 µM in assay [7], 1.14 µM in assay [8], 1.44 µM in assay [9] and 1.42 µM in assay [10]. In addition, the TGI stood at 0.998 µM in assay [1]; 4.44 µM in assay [2]; 1.12 µM in assay [3]; 3.61 µM in assay [4]; 1.89 µM in assay [5]; 3.74 µM in assay [6]. In addition, the TGI in [7] is 2.83 µM; in [8] it was 2.42 µM; in assay [9], 2.89 µM; in assay [10], 2.91 µM.
As for `CNC(=O)OC1C(O[C@H]2C[C@H]3[C@@H]4CC=C5C[C@@H](O)CC[C@]5(C)[C@H]4CC[C@]3(C)[C@H]2[C@H](C)C(=O)CCC(C)C)OCC(O)C1OC1OCC(O)C(O)C1OC(=O)c1ccc(OC)cc1` (stereo not given in full), the GI50 in [1] was 0.677 µM; in [2], 0.0225 µM; in assay [3] it was 0.0139 µM; in assay [4] it was 0.103 µM; in [5], 1.03 µM; in assay [6], 0.235 µM. For the same molecule, the GI50 was below 0.00275 µM in assay [7], 0.026 µM in [8], 0.00334 µM in assay [9] and 0.0237 µM in assay [10]. The TGI in assay [1] is 4.01 µM; in assay [2], 2.85 µM; in assay [3] it was 0.554 µM; in [4] it was 4.62 µM; in assay [5], 6.1 µM; in assay [6], 5.01 µM. Besides, the TGI was 0.0111 µM in assay [7], 0.317 µM in assay [8], 3.87 µM in assay [9] and 0.105 µM in [10].
Take `C1=C(c2ccccc2)C(c2ccc(OCCN3CCCCC3)cc2)Oc2ccccc21` (stereo not given): the GI50 in assay [1] is 1.5 µM; in assay [2], 1.67 µM; in assay [3], 1.53 µM; in assay [4], 1.86 µM; in [5], 1.88 µM; in [6] it was 1.61 µM. Further, the GI50 in assay [7] is 1.61 µM; in [8] it was 1.78 µM; in assay [9], 1.65 µM; in assay [10], 2.02 µM. The TGI turned out to be 2.99 µM in [1]; 3.29 µM in assay [2]; 3.38 µM in [3]; 3.51 µM in assay [4]; 4.14 µM in assay [5]; 3.29 µM in assay [6]. The TGI in assay [7] came to 3.11 µM; in assay [8] it was 3.16 µM; in assay [9], 3.18 µM; in [10], 4.15 µM.
On to `Cc1cc(C)n(C(=O)c2nn(-c3ccc(Cl)cc3)cc2O)n1`, for which the GI50 is 3.53 µM in assay [1]; 5.21 µM in assay [2]; above 100 µM in assay [3]; 8.8 µM in assay [4]; 12.7 µM in [5]; 4.98 µM in assay [6]. The GI50 in assay [7] was 4.58 µM; in [8] it was 6.76 µM; in assay [9], 2.68 µM; in assay [10] it was 16.6 µM. Moreover, the TGI in assay [1] was above 100 µM; in [2] it was 79.4 µM; in assay [3], above 100 µM; in assay [4], above 100 µM; in assay [5] it was 87.7 µM; in [6], above 100 µM. Further, the TGI in assay [7] is above 100 µM; in [8] it was 23.3 µM; in assay [9] it was above 100 µM; in [10], above 100 µM.
For `O=C(O)c1cscc1Cc1cccs1`, the TGI in assay [1], in assay [2], in [3], in assay [4], in assay [5] and in assay [6] was above 100 µM in each case. Further, the TGI in assay [7], in assay [8], in assay [9] and in assay [10] was above 100 µM in each case.
